Measured values as given in patent publication US20070141092A1, “BIGUANIDE COMPOSITION AND METHOD OF TREATMENT AND PREVENTION OF VIRAL INFECTIONS” (priority 2005, published 2007).

Columns and labels:
Type in all cases: cell-based
[1] = test system: Herpes simplex virus type 1; assay: Viral Suspension Assay, HSV-1 (CPE on rabbit kidney indicator cells)
Method: (§1) The Viral Suspension Assay was used to evaluate the antiviral properties of Alexidine against Herpes simplex virus type 1 when exposed in suspension for 1, 2, 5, and 10 minutes. The presence of virus (infectivity) was determined by monitoring the virus specific cytopathic effect (CPE) on an appropriate indicator cell line, rabbit kidney. Results are reported as Percent (%) Reduction in virus titer as compared to the corresponding virus control titer (Table 1). The titer of the virus controls were 7.5 log10 following the one minute exposure time; 7.0 log10 following the two minute exposure time; and 7.75 log10 following both the five and ten minute exposure times.

Adenovirus Type-4 = assay: Viral Suspension Assay, Adenovirus Type-4; details: both 30 ppm and 99 ppm
Method: as §1, with “Adenovirus Type-4, Adenovirus Type-8 and Adenovirus Type-19 and Cytomegalovirus” for “Herpes simplex virus type 1”

Adenovirus Type-8 = assay: Viral Suspension Assay, Adenovirus Type-8; details: both 30 ppm and 99 ppm
Method: as §1, with “Adenovirus Type-4, Adenovirus Type-8 and Adenovirus Type-19 and Cytomegalovirus” for “Herpes simplex virus type 1”

Cytomegalovirus = assay: Viral Suspension Assay, Cytomegalovirus; details: both 30 ppm and 99 ppm
Method: as §1, with “Adenovirus Type-4, Adenovirus Type-8 and Adenovirus Type-19 and Cytomegalovirus” for “Herpes simplex virus type 1”

## CCCCC(CC)CNC(=N)NC(=N)NCCCCCCNC(=N)NC(=N)NCC(CC)CCCC (centres unmarked) [Alexidine, 1,1′-hexamethylene-bis[5-(2-ethylhexyl)biguanide]]
[1]; both 30 ppm and 99 ppm
  Effectiveness against herpes simplex type-1 virus (in words): effective agents
[1]; summary statement
  Overall activity against Herpes Simplex-1 (in words): potent antimicrobial agent
Adenovirus Type-4
  Effectiveness against Adenovirus Type-4 (in words): somewhat effective
Adenovirus Type-8
  Effectiveness against Adenovirus Type-8 (in words): somewhat effective
Cytomegalovirus
  Effectiveness against Cytomegalovirus (in words): somewhat effective
